Results taken from patent US12186297B2, “Compositions and methods for increasing lean-to-fat mass ratio” (AXCESS GLOBAL SCIENCES, LLC, priority 2020, dated 2025).

Assay: Expected change in fat mass, muscle mass and lean-to-fat mass ratio in subjects following a training regimen (FIGS. 3, 4A-4C)
Assay type: in vivo
Conditions: FIG. 4A, set period of time (e.g., 1-3 months)
Source text: FIG. 4A illustrates expected change in fat mass over a set period of time (e.g., 1-3 months) for subjects following a training regimen and given different treatments of HMB only (HMB), BHB only (BHB), and a combination of the same amounts of HMB and BHB (HMB+BHB).
FIG. 4B illustrates expected change in muscle mass over a set period of time (e.g., 1-3 months) for subjects following a training regimen and given different treatments of HMB only (HMB), BHB only (BHB), and a combination of the same amounts of HMB and BHB (HMB+BHB).

CC(C)(O)CC(=O)O [HMB, beta-hydroxy-beta-methylbutyrate]
expected change in fat mass: not expected to provide fat loss to any significant degree by itself
